Experimental data taken from publication PMC9656319, “Pharmacokinetics and Tissue Distribution of Coumarins from Tagetes lucida in an LPS-Induced Neuroinflammation Model” (Plants, 2022).

How the values were obtained:
[1] = Stability of the analytes in spiked plasma, brain, kidney and spleen matrices (autosampler, long-term, freeze-thaw); type: physicochemical, mice; details: for Stability Autosampler RE (%): processed samples in autosampler vials 24 h room temperature; for Stability Freeze-Thaw RE (%): three cycles (−4 °C to 25 °C); for Stability Long-Term RE (%): −70 °C for 30 days
Procedure: The stability of the compounds obtained from each enriched matrices at the QC concentrations was evaluated under different conditions that covered the processing, handling, and storage phases that could be developed throughout the study.
Individual stock solutions of PE, SC, DF, HR, PU, and rutin (IS) were prepared separately in methanol (1 mg/mL) and stored at −4 °C until use. From the stocks, a working solution in methanol was prepared at a concentration of 200 µg/mL of each coumarin. Blank plasma or organs supernatant samples (80 µL) were spiked with 20 µL of serial dilutions of working solution to obtain calibration curves ranging between 0.156, 0.312, 0.625, 1.25, 2.5, 5, 10, 20, and 40 µg/mL of each coumarin. Quality control (QC) samples were prepared at three levels of 0.3 (low), 3 (medium), and 30 (high) µg/mL for each coumarin.
The stability of the analytes in plasma, brain, kidneys, and spleen was evaluated by the analyzed concentrations of QC subjected to three different conditions. Short-term stability was determined by analysis of samples processed in the autosampler vials at 24 h at room temperature. Long-term stability was tested on samples stored at −70 °C for 30 days. Freeze-thaw stability was determined after three cycles (−4 °C to 25 °C) on three consecutive days.

[2] = Pharmacokinetic study in plasma after oral hexanic extract of Tagetes lucida, healthy and LPS-damaged mice; type: in vivo, ICR mice; details: for Cmax / AUC(0-inf) / MRT / Tmax / half-life / AUC(0-t): ICR, mouse, po, 10 mg/kg; for Cmax / AUC(0-inf) / MRT / Tmax / half-life / AUC(0-t) / Cl/F: plasma, 10 mg/kg oral hexanic extract, mean ± SEM (n = 5); for Cmax: non-compartmental; for AUC(0-t): to 6 h
Procedure: The optimized HPLC-validated method for the quantification of coumarins present in the hexane extract of T. lucida was used to evaluate the concentration profiles over time in the plasma, brain, kidney, and spleen biological matrices after an oral administration of 10 mg/kg of the extract.
Blood samples were obtained from the retro-orbital sinus of mice and collected in heparinized tubes. Plasma was separated by centrifugation at 3500 rpm for 5 min and stored in new Eppendorf tubes at −70 °C, until further processing.
(§1) One hundred microliters of plasma and organs samples, spiked with calibration and QC concentration or samples from the pharmacokinetic study, were mixed with 300 µL of acetonitrile containing the IS at 10 µg/mL for protein precipitation, and vortexed for 3 min. Then, 200 µL of dichloromethane were added, for liquid–liquid extraction of the bioactive compounds, and vortexed for 5 min. The mixture was centrifuged at 14,000 rpm for 10 min, and the extracted organic layers were placed in new tubes, until completely dry at room temperature. For quantitative analysis, samples were resuspended in 100 µL of methanol, transferred to sampling vials, and injected into the chromatographic system, described below.
A pharmacokinetic study was carried out in sixty mice, divided in six subgroups, according to sample collection times. An acute inflammation process by the intraperitoneal (i.p.) administration of LPS at 2 mg/kg was induced in half of the mice per group, while the other half received an i.p. injection of saline solution. Ten min after the damage was induced, the mice were administered with an oral dose of 10 mg/kg of the bioactive fraction dissolved in a 1% Tween-20 aqueous solution. Blood and tissue samples were obtained and processed at 0, 0.25, 0.75, 1.5, 2, 4, and 6 h post-dosing, as indicated in the “Samples collection” and “Plasma and tissue samples processing” sections.
Pharmacokinetic parameters of PE, SC, DF, HR, and PU in plasma were calculated by PKSolver software.

[3] = Tissue distribution in the brain after oral hexanic extract of Tagetes lucida, healthy and LPS-administrated mice; type: in vivo, ICR mice; details: after the initial absorption process
Procedure: After blood sampling, the mice were sacrificed in a chamber with chloroform by an overdose of anesthesia. The brain, kidney, and spleen were quickly removed and rinsed with saline solution, fresh weight was recorded, and immediately placed on ice. Subsequently, the organs were freeze-dried, grounded, and weighted. The lyophilized organs were individually suspended in methanol in a 1:1 volume: dry weight ratio for 24 h, then sonicated for 5 min and centrifuged at 14,000 rpm for 7 min. The supernatants were recovered in clean tubes and stored at −70 °C until their use.
as §1
A pharmacokinetic study was carried out in sixty mice, divided in six subgroups, according to sample collection times. An acute inflammation process by the intraperitoneal (i.p.) administration of LPS at 2 mg/kg was induced in half of the mice per group, while the other half received an i.p. injection of saline solution. Ten min after the damage was induced, the mice were administered with an oral dose of 10 mg/kg of the bioactive fraction dissolved in a 1% Tween-20 aqueous solution. […]
To evaluate the distribution in the tissues, bioactive coumarins were quantified in the lyophilized organs, and concentrations were adjusted to the volumes of liquid obtained by the difference between the dry and fresh weights of each tissue to simulate a distribution approximation of the compounds by tissue system.

[4] = LPS-damaged ICR mice (LPS 2 mg/kg i.p.)

SMILES: COc1cc2ccc(=O)oc2cc1OCC=C(C)C [PE, 7-O-prenylscopoletin]
- Stability Autosampler RE (%) ([1]; brain, nominal 0.3 µg/mL): -2.37%
- Stability Freeze-Thaw RE (%) ([1]; brain, nominal 0.3 µg/mL): -1.15%
- Stability Long-Term RE (%) ([1]; brain, nominal 0.3 µg/mL): -0.63%
- Stability Autosampler RE (%) ([1]; brain, nominal 3.0 µg/mL): -0.34%
- Stability Freeze-Thaw RE (%) ([1]; brain, nominal 3.0 µg/mL): -2.34%
- Stability Long-Term RE (%) ([1]; brain, nominal 3.0 µg/mL): -3.44%
- Stability Autosampler RE (%) ([1]; brain, nominal 30.0 µg/mL): 4.05%
- Stability Freeze-Thaw RE (%) ([1]; brain, nominal 30.0 µg/mL): -1.25%
- Stability Long-Term RE (%) ([1]; brain, nominal 30.0 µg/mL): -3.82%
- Stability Autosampler RE (%) ([1]; kidney, nominal 0.3 µg/mL): 7.06%
- Stability Freeze-Thaw RE (%) ([1]; kidney, nominal 0.3 µg/mL): 2.26%
- Stability Long-Term RE (%) ([1]; kidney, nominal 0.3 µg/mL): 3.02%
- Stability Autosampler RE (%) ([1]; kidney, nominal 3.0 µg/mL): 3.99%
- Stability Freeze-Thaw RE (%) ([1]; kidney, nominal 3.0 µg/mL): 0.91%
- Stability Long-Term RE (%) ([1]; kidney, nominal 3.0 µg/mL): 2.69%
- Stability Autosampler RE (%) ([1]; kidney, nominal 30.0 µg/mL): 1.61%
- Stability Freeze-Thaw RE (%) ([1]; kidney, nominal 30.0 µg/mL): 1.12%
- Stability Long-Term RE (%) ([1]; kidney, nominal 30.0 µg/mL): 7.34%
- Stability Autosampler RE (%) ([1]; plasma, nominal 0.3 µg/mL): -4.00%
- Stability Freeze-Thaw RE (%) ([1]; plasma, nominal 0.3 µg/mL): 2.80%
- Stability Long-Term RE (%) ([1]; plasma, nominal 0.3 µg/mL): -6.86%
- Stability Autosampler RE (%) ([1]; plasma, nominal 3.0 µg/mL): 11.12%
- Stability Freeze-Thaw RE (%) ([1]; plasma, nominal 3.0 µg/mL): -2.01%
- Stability Long-Term RE (%) ([1]; plasma, nominal 3.0 µg/mL): -4.44%
- Stability Autosampler RE (%) ([1]; plasma, nominal 30.0 µg/mL): 8.22%
- Stability Freeze-Thaw RE (%) ([1]; plasma, nominal 30.0 µg/mL): -5.55%
- Stability Long-Term RE (%) ([1]; plasma, nominal 30.0 µg/mL): -5.20%
- Stability Autosampler RE (%) ([1]; spleen, nominal 0.3 µg/mL): -5.98%
- Stability Freeze-Thaw RE (%) ([1]; spleen, nominal 0.3 µg/mL): 2.50%
- Stability Long-Term RE (%) ([1]; spleen, nominal 0.3 µg/mL): 1.51%
- Stability Autosampler RE (%) ([1]; spleen, nominal 3.0 µg/mL): -10.42%
- Stability Freeze-Thaw RE (%) ([1]; spleen, nominal 3.0 µg/mL): 4.42%
- Stability Long-Term RE (%) ([1]; spleen, nominal 3.0 µg/mL): 3.67%
- Stability Autosampler RE (%) ([1]; spleen, nominal 30.0 µg/mL): -1.02%
- Stability Freeze-Thaw RE (%) ([1]; spleen, nominal 30.0 µg/mL): 2.38%
- Stability Long-Term RE (%) ([1]; spleen, nominal 30.0 µg/mL): 2.78%
- Cmax [2, 4]: 1770 ± 310 ng/mL
- AUC(0-inf) ([2]; LPS-damaged ICR mice): 6370 ± 1200 ng·h/mL
- MRT ([2]; LPS-damaged ICR mice): 6.96 ± 1.92 h
- Tmax ([2]; LPS-damaged ICR mice): 0.85 ± 0.28 h
- half-life ([2]; LPS-damaged ICR mice): 4.48 ± 1.31 h
- AUC(0-t) ([2]; LPS-damaged ICR mice): 3520 ± 100 ng·h/mL
- AUC(0-inf) ([2]; healthy ICR mice): 1700 ± 310 ng·h/mL
- MRT ([2]; healthy ICR mice): 3.04 ± 0.45 h
- Tmax ([2]; healthy ICR mice): 1.55 ± 0.34 h
- half-life ([2]; healthy ICR mice): 1.86 ± 0.55 h
- Cmax ([2]; healthy ICR mice): 930 ± 290 ng/mL
- AUC(0-t) ([2]; healthy ICR mice): 1560 ± 350 ng·h/mL
- Cl/F ([2]; LPS-damaged ICR mice): 17.38 ± 2.25 (mg/kg)/(μg/mL)/h
- Cl/F ([2]; healthy ICR mice): 65.83 ± 10.18 (mg/kg)/(μg/mL)/h
- time at which the highest concentration in the brain tissue is reached [3]: 15 min

SMILES: CC(C)=CCOc1ccc2ccc(=O)oc2c1 [PU, 7-O-prenylumbelliferone]
- Stability Autosampler RE (%) ([1]; brain, nominal 0.3 µg/mL): 2.13%
- Stability Freeze-Thaw RE (%) ([1]; brain, nominal 0.3 µg/mL): -6.54%
- Stability Long-Term RE (%) ([1]; brain, nominal 0.3 µg/mL): 3.45%
- Stability Autosampler RE (%) ([1]; brain, nominal 3.0 µg/mL): 1.80%
- Stability Freeze-Thaw RE (%) ([1]; brain, nominal 3.0 µg/mL): -4.49%
- Stability Long-Term RE (%) ([1]; brain, nominal 3.0 µg/mL): -5.42%
- Stability Autosampler RE (%) ([1]; brain, nominal 30.0 µg/mL): 4.57%
- Stability Freeze-Thaw RE (%) ([1]; brain, nominal 30.0 µg/mL): -1.74%
- Stability Long-Term RE (%) ([1]; brain, nominal 30.0 µg/mL): -4.61%
- Stability Autosampler RE (%) ([1]; kidney, nominal 0.3 µg/mL): 7.10%
- Stability Freeze-Thaw RE (%) ([1]; kidney, nominal 0.3 µg/mL): 3.61%
- Stability Long-Term RE (%) ([1]; kidney, nominal 0.3 µg/mL): 5.54%
- Stability Autosampler RE (%) ([1]; kidney, nominal 3.0 µg/mL): 5.21%
- Stability Freeze-Thaw RE (%) ([1]; kidney, nominal 3.0 µg/mL): 2.01%
- Stability Long-Term RE (%) ([1]; kidney, nominal 3.0 µg/mL): 8.68%
- Stability Autosampler RE (%) ([1]; kidney, nominal 30.0 µg/mL): 1.66%
- Stability Freeze-Thaw RE (%) ([1]; kidney, nominal 30.0 µg/mL): -1.02%
- Stability Long-Term RE (%) ([1]; kidney, nominal 30.0 µg/mL): 6.46%
- Stability Autosampler RE (%) ([1]; plasma, nominal 0.3 µg/mL): -6.02%
- Stability Freeze-Thaw RE (%) ([1]; plasma, nominal 0.3 µg/mL): -9.54%
- Stability Long-Term RE (%) ([1]; plasma, nominal 0.3 µg/mL): -8.22%
- Stability Autosampler RE (%) ([1]; plasma, nominal 3.0 µg/mL): -11.68%
- Stability Freeze-Thaw RE (%) ([1]; plasma, nominal 3.0 µg/mL): -9.78%
- Stability Long-Term RE (%) ([1]; plasma, nominal 3.0 µg/mL): -10.56%
- Stability Autosampler RE (%) ([1]; plasma, nominal 30.0 µg/mL): -9.86%
- Stability Freeze-Thaw RE (%) ([1]; plasma, nominal 30.0 µg/mL): -5.10%
- Stability Long-Term RE (%) ([1]; plasma, nominal 30.0 µg/mL): -4.81%
- Stability Autosampler RE (%) ([1]; spleen, nominal 0.3 µg/mL): -0.09%
- Stability Freeze-Thaw RE (%) ([1]; spleen, nominal 0.3 µg/mL): -8.53%
- Stability Long-Term RE (%) ([1]; spleen, nominal 0.3 µg/mL): -6.92%
- Stability Autosampler RE (%) ([1]; spleen, nominal 3.0 µg/mL): -4.98%
- Stability Freeze-Thaw RE (%) ([1]; spleen, nominal 3.0 µg/mL): 2.88%
- Stability Long-Term RE (%) ([1]; spleen, nominal 3.0 µg/mL): 7.56%
- Stability Autosampler RE (%) ([1]; spleen, nominal 30.0 µg/mL): -2.63%
- Stability Freeze-Thaw RE (%) ([1]; spleen, nominal 30.0 µg/mL): 2.27%
- Stability Long-Term RE (%) ([1]; spleen, nominal 30.0 µg/mL): 4.26%
- Cmax [2, 4]: 690 ± 70 ng/mL
- AUC(0-inf) ([2]; LPS-damaged ICR mice): 2240 ± 260 ng·h/mL
- MRT ([2]; LPS-damaged ICR mice): 2.68 ± 0.14 h
- Tmax ([2]; LPS-damaged ICR mice): 1.05 ± 0.31 h
- half-life ([2]; LPS-damaged ICR mice): 0.95 ± 0.1 h
- AUC(0-t) ([2]; LPS-damaged ICR mice): 2220 ± 260 ng·h/mL
- AUC(0-inf) ([2]; healthy ICR mice): 1520 ± 120 ng·h/mL
- MRT ([2]; healthy ICR mice): 2.15 ± 0.11 h
- Tmax ([2]; healthy ICR mice): 1.55 ± 0.23 h
- half-life ([2]; healthy ICR mice): 0.92 ± 0.06 h
- Cmax ([2]; healthy ICR mice): 560 ± 50 ng/mL
- AUC(0-t) ([2]; healthy ICR mice): 1490 ± 110 ng·h/mL
- time of concentration peak in plasma after administration of the extract ([2]; LPS-treated mice, Figure 3e): up to 4 h
- Cl/F ([2]; LPS-damaged ICR mice): 46.95 ± 5.03 (mg/kg)/(μg/mL)/h
- Cl/F ([2]; healthy ICR mice): 67.37 ± 5.33 (mg/kg)/(μg/mL)/h
- time at which the highest concentration in the brain tissue is reached [3]: 15 min
